Assay results taken from patent US12678412B2, “Substituted tolans for the modulation of microbial colonization” (BioMendics, LLC, priority 2017, dated 2026).

Experiments:
[1] = test system: Methicillin Resistant Staphylococcus aureus (MRSA, USA 400); assay: Colony forming assay, 24 h plate assay, MRSA USA 400; format: cell-based
Experimental: Proliferating cultures of Methicillin Resistant Staphylococcus aureus (MRSA, USA 400) were used in a colony forming assay. Frozen stock cultures of MRSA USA 400 were thawed and grown overnight in tryptic soy broth (TSB) with shaking at 37° C. The overnight culture (0.5-1.0 mL) was added to 100 mL TSB and grown at 37° C. with shaking and monitored for an optical density of 0.55-0.60 in order to obtain a final inoculum suspension of approximately 10^8 CFU/mL.
BM3103 was suspended into a 70% v/v alcohol gel formulation to acquire the desired % w/v tested within the example. Each concentration was vortexed thoroughly until dissolved. Initial tested concentrations of BM3103 were 1, 0.5, and 0.1% w/v. These concentrations and the alcohol gel vehicle were mixed with equal parts of the 10^8 CFU/mL inoculum to obtain a final concentration of 0.5, 0.25, and 0.05% (22 mM, 11 mM, and 2 mM) BM3103. Tobramycin (600 μg/mL) served as the positive control. Vehicle and BM3103 formulations contained matching final concentration of 35% v/v alcohol.
BM3103 was dissolved into Transcutol (diethylene glycol monoethyl ether) at 2.5% w/v and vortexed until dissolved. This concentration was then serial diluted to achieve the remaining concentrations tested. Before plating, 100 μL of the final inoculum (10^8 CFU/mL) was mixed with 20 μL TSB broth and 80 μL of BM3103 doses or vehicle. Tobramycin, 600 μg/mL, served as the positive control. The final plating concentrations for BM3103 were 1, 0.5, 0.25, and 0.1% w/v (44 mM, 22 mM, 11 mM, 4 mM) BM3103. Vehicle and BM3103 formulations contained matching final concentration of 40% v/v Transcutol.
The above listed formulations combined with the MRSA inoculum were plated onto TSB agar plates. The plates were grown at 37° C. for 24 h, imaged, and the bacteria colonies were counted. The experiment was done in triplicate at each concentration level described above. Colony counts for each treatment were tabulated and the Log of the colony forming units/mL (Log CFU/mL) were determined. The mean and the standard error of the mean were calculated for each treatment.

[2] = test system: Pseudomonas aeruginosa ATCC 27312; assay: Colony forming assay, spread plate, Pseudomonas aeruginosa; format: cell-based; details: for Reduction of PA counts: compared to vehicle, Tobramycin and untreated control
Experimental: A fresh culture of pathogenic isolate was used in these examples. The bacterial strains used were Methicillin Resistant Staphylococcus aureus (MRSA USA 300), Pseudomonas aeruginosa ATCC 27312, and Candida albicans ATCC 64550.
FIG. 5 illustrates the spread plate method used in these examples. In sum, agar plates were made, bacteria were diluted to 10^6 or 10^8 CFU/mL, bacteria and drug were mixed together and then plated. Glass spreading beads were used because they give a better bacterial spread. Plates were incubated for 24 hrs then the colonies that formed were counted.
Proliferating cultures of Pseudomonas aeruginosa (PA, ATCC 27312) and Candida albicans (CA, ATCC 64550) were used in a colony forming assay. Freeze-dried bacteria cultures were recovered by swabbing a 3-cm diameter growth area and resuspending it to obtain a final inoculum suspension of approximately 10^6 CFU/mL. The concentration was confirmed using historical optical density measurements. Before bacteria challenge, the tolan compound BM3103 was suspended in 100% diethylene glycol monoethyl ether (Formulation C) with vehicle control consisting solely of the diethylene glycol monoethyl ether. Before plating, 100 μL of the final inoculum (10^6 CFU/mL) was mixed with 200 μL LB broth and 200 μL of BM3103 doses, vehicle, positive control (Tobramycin, 12 μg/mL for PA and 160 μg/mL for CA), or untreated control (phosphate buffered saline). The final plating concentration for the high, middle, and low BM3103 doses were 0.5%, 0.25%, and 0.1% w/v (22 mM, 11 mM, and 4 mM), respectively. The inoculum was plated on agar with centrimide and nalidixate (CN) supplement for PA (though sodium nalidixate or nalixic acid could also be used), and on Tryptic Soy Broth plates for CA experiments, at 37° C. for 24 h. Plates were photographed and counted. The experiment was done in triplicate.
Colony counts for each treatment were tabulated and the Log of the colony forming units/mL (Log CFU/mL) were determined. The mean and standard deviation of the Log CFU/mL were calculated for each treatment. […] The medium and low dose groups reduced PA counts when compared to the vehicle, Tobramycin, and untreated control groups by about 5-fold.

wild type E. Coli = assay: Control of microbial growth, wild type E. coli; format: cell-based
MRSA USA 400 = assay: Bacterial cell death, DAPI/propidium iodide staining; format: cell-based, Staphylococcus aureus; details: 24 h treatment; 0.002 mM to 0.0625 mM; FIG. 13
Experimental: In order to confirm that treatment with BM3103 induced MRSA USA 400 bacterial cell death, both untreated cells and cells treated with BM3103 were stained with a combination of DAPI (nuclear stain) and Propidium iodide (PI, Live dead stain). In a healthy cell, PI is not able to cross the cell membrane and produces no fluorescent signal. If the cell is dead or has a compromised cell membrane it will bind DNA and fluoresces between 535 nm excitation and 617 nm emission. MRSA USA 400 were plated in a well plate at 10^8 CFU/mL in combination with BM3103 treatment or no treatment. Plates were placed at 37° C. for 24 h. Bacteria cells were co-stained with DAPI and PI at 50 μg/mL and 500 μg/mL, respectively, for 15 min at room temperature. Wells were washed with warmed phosphate buffered saline (PBS) and maintained in PBS throughout the imaging acquisition process. Images were captured using the same exposure limits for each filter. […] Concentrations above 0.0625 mM gave a similar result.

## COc1ccc(C#Cc2ccc(O)cc2)cc1 [BM3103, 4-hydroxy-4′-methoxytolan]
[1]; 0.05% w/v, 2 mM, alcohol gel formulation, compared to the vehicle control, FIG. 9
  Reduction of MRSA USA 400 counts: 4 fold
[1]; 0.1% BM3103, Transcutol formulation, FIG. 10
  Reduction of MRSA USA 400 counts: > 5 fold
[1]; 0.25% BM3103, alcohol gel formulation, FIG. 9
  Bacterial count of MRSA USA 400: no bacterial count
[1]; 0.5% BM3103, alcohol gel formulation, FIG. 9
  Bacterial count of MRSA USA 400: no bacterial count
[1]; remaining concentrations tested (1, 0.5, 0.25% w/v), Transcutol formulation, FIG. 10
  Bacterial count of MRSA USA 400: no bacterial count
[2]; 0.1-0.5% w/v, Formulation C
  Dose dependence of effect on PA bacterial counts: dose dependent inhibitory effect
[2]; high dose 0.5% w/v, 22 mM, diethylene glycol monoethyl ether (Formulation C), 24 h, FIG. 7
  PA bacterial counts: no bacteria colonies
[2]; low dose 0.1% w/v, 4 mM, Formulation C, 24 h
  Reduction of PA counts: about 5 fold
[2]; medium dose 0.25% w/v, 11 mM, Formulation C, 24 h
  Reduction of PA counts: about 5 fold
Wild type E. Coli
  Effectiveness against wild type E. Coli: effective
MRSA USA 400
  PI staining (cell death): dose dependent increase in PI staining
